{
  "source": "patent US20090170947A1",
  "about": "“DISINFECTANT COMPOSITIONS, METHODS AND SYSTEMS” (priority 2007, published 2009)",
  "key": {"[1]": {"tested_on": "S. aureus", "test": "Checkerboard Titration, S. aureus", "assay_type": "cell-based, Staphylococcus aureus", "conditions": "PHMB with EDTA(Na4)", "method": "The following concentrations were tested: Fraction Inhibitory Concentration (FIC) is defined as the MIC of the compound in combination divided by the MIC of the compound alone. […] In order to calculate the FIC index the following calculations are performed for compounds A and B: • FIC-A=(MIC of A in combination)/(MIC of A alone) • FIC-B=(MIC of B in combination)/(MIC of […]"}, "[2]": {"tested_on": "P. aeruginosa", "test": "Checkerboard Titration, P. aeruginosa", "assay_type": "cell-based, Pseudomonas aeruginosa", "conditions": "PHMB with EDTA(Na4)", "experimental": "(§3) The method used was a NCCLS micro-dilution procedure\n(§4) Fraction Inhibitory Concentration (FIC) is defined as the MIC of the compound in combination divided by the MIC of the compound alone. If the FIC index is <0.5, the combination is interpreted to be synergistic; <1 but >0.5—as partially synergistic; =1 as additive; >1 but <4 as indifferent; and ≧4 as antagonistic. In order to calculate the FIC index the following calculations are performed for compounds A and B: • FIC-A=(MIC of A in combination)/(MIC of A alone) • FIC-B=(MIC of B in combination)/(MIC of B alone) • FIC-combination=FIC-A+FIC-B"}, "[3]": {"tested_on": "C. albicans", "test": "Checkerboard Titration, C. albicans", "assay_type": "cell-based, Candida albicans", "conditions": "PHMB with EDTA(Na4)", "experimental": "as §3, §4"}, "[4]": {"tested_on": "blood coagulation (clotting)", "test": "Prothrombin Time (PT) Assay", "assay_type": "biochemical", "conditions": "concentration of TEDTA of 4 wt %; ISI 1.89", "method": "Experiments were conducted to assess the anticoagulant capacities of PHMB, EDTA and combinations of PHMB and EDTA via a Prothrombin Time (PT) Assay. A PT assay (TM-4339-063) was conducted using a Coagulation Analyzer to obtain PT instead of manually recording the PT. Tetrasodium […]) was used (Alfa Aesar, Catalog #A17385, Lot #J9570A). […] […] […] INR is calculated as: INR=([…] sample/PTnormal control)^ISI ISI (International Sensitivity Index) indicates the sensitivity of individual thromboplastin. […] All the PTs greater than 3×the […] 1 (normal control) were replaced with 32 seconds."}, "[5]": {"conditions": "rabbit, in vivo; cited from earlier work"}, "[6]": {"tested_on": "Staphylococcus aureus (Organism #25923)", "test": "MIC/MBC micro-dilution at pH 7, S. aureus", "assay_type": "cell-based", "conditions": "pH of 7", "method": "(§1) In order to determine MIC (minimum inhibitory concentration) and MBC (minimum bactericidal concentration) a National Committee on Clinical Laboratory Standards (NCCLS) micro-dilution procedure was followed. According to the procedure each formulation must be exposed to 6 log concentration of organism or the highest achievable concentration. In the current protocol 100 μL of MHB was mixed with 90 μL of formulation and 10 μL of log 8 organism or the highest achievable concentration. The concentration of the formulation was adjusted to obtain the required concentration in the final solution. The mixture was incubated at 37 degree C. for 16-24 hrs. After 16-24 hours the absorbance value was read at 600 nm. The obtained data was corrected by subtracting the appropriate blanks. Finally, the wells having an absorbance >0.1 were marked + and <0.1 were marked −. The +symbol indicated growth while −symbol indicates no growth.\n(§2) Staphylococcus aureus (Organism #25923), Pseudomonas aeruginosa (Organism #27853), and Candida Albicans (Organism #10231) was obtained from ATCC. […] These solutions were then serially diluted as necessary to obtain the required concentrations."}, "[7]": {"tested_on": "Pseudomonas aeruginosa (Organism #27853)", "test": "MIC/MBC micro-dilution at pH 7, P. aeruginosa", "assay_type": "cell-based", "conditions": "pH of 7", "method": "as §1, §2"}, "[8]": {"tested_on": "Candida Albicans (Organism #10231)", "test": "MIC/MBC micro-dilution at pH 7, C. albicans", "assay_type": "cell-based", "conditions": "pH of 7", "method": "as §1, §2"}, "[9]": {"conditions": "humans; doses of up to 3000 mg infused over 3 hours, daily; cited from earlier work"}},
  "note": "Structures can show the parent of a compound that is named as a salt.",
  "data": [
    {"molecule": "O=C([O-])CN(CCN(CC(=O)[O-])CC(=O)[O-])CC(=O)[O-].[Na+].[Na+].[Na+].[Na+]", "note": "[EDTA(Na4), EDTA, tetrasodium salt hydrate]", "values": [
      {"measurement": "FIC of the single component (MIC in combination / MIC alone)", "setting": "[1]", "result": 0.4},
      {"measurement": "FIC of the single component (MIC in combination / MIC alone)", "setting": "[2]", "result": 0.25},
      {"measurement": "FIC of the single component (MIC in combination / MIC alone)", "setting": "[3]", "result": 0.3},
      {"measurement": "International Normalized Ratio (INR)", "setting": "[4]", "result": "greater than 7.25"}
    ]},
    {"molecule": "Poly(hexamethylenebiguanide) [PHMB]", "values": [
      {"measurement": "NOAEL", "setting": "[5]", "result": "NOAEL = 20 mg/kg/day"}
    ]},
    {"molecule": "O=C(O)CN(CCN(CC(=O)O)CC(=O)O)CC(=O)O", "note": "[EDTA, EDTA, tetrasodium salt hydrate]", "values": [
      {"measurement": "MBC", "setting": "[6]", "result": "< 0.13", "unit": "wt %"},
      {"measurement": "MIC", "setting": "[6]", "result": "< 0.03", "unit": "wt %"},
      {"measurement": "MBC", "setting": "[7]", "result": "< 4.00", "unit": "wt %"},
      {"measurement": "MIC", "setting": "[7]", "result": "< 0.25", "unit": "wt %"},
      {"measurement": "MIC", "setting": "[8]", "result": "> 4.0", "unit": "wt %"}
    ]},
    {"molecule": "O=C([O-])CN(CCN(CC(=O)[O-])CC(=O)O)CC(=O)O.[Na+].[Na+]", "note": "[EDTA disodium]", "values": [
      {"measurement": "Tolerability", "setting": "[9]", "result": "well tolerated"}
    ]}
  ]
}
